Data: US6514967B1 (priority 1997, dated 2003)
Like-named read-outs stand apart in the source and are kept apart here.

Tests used:
xanthine oxidase = xanthine oxidase (Homo sapiens, UniProt P47989); test: Action of the derivatives on xanthine oxidase; assay type: biochemical; conditions: for inhibition at 100 µM: read-out: % inhibition 100 μM; for inhibition at 500 µM: read-out: % inhibition 500 μM
Protocol: Action of the derivatives on xanthine oxidase:
(Free Radical Biology & Medicine, Vol 20, No 1, pp.35-43, 1996)
[…] of xanthine 20 mM in soda 0.1N and […] of the test product in phosphate buffer at pH 7.4 were placed in a final volume of 2 ml. Reaction is started by adding […] of solution of xanthine oxidase at 0.56 U/ml. Formation of […] is monitored by UV spectroscopy at 290 nm. Allopurinol is a reference inhibitor.

[1] = Chemical test of capture of OH• radicals (deoxyribose competition); assay type: biochemical; conditions: rate constant of reaction of the competitor with OH•, competition with 2-deoxyribose, UV at 532 nm
Protocol: A) Chemical test of capture of OH^• radicals:
(Free Rad. Res. Comms., Vol. 14, Nos. 5-6, pp. 363-372)
[…] of buffer (30 mM Na2HPO4.7H2O, 40 mM NaCl, 0.1 mM EDTA), 125 ml of deoxyribose at 2.10^−3 mM and 125 ml of 4-times concentrated solution of radical inhibitor (final concentration from 0 to 0.5 mM) were placed in glass haemolysis tubes cooled on an ice bath. […] of FeSO4 at 10^−3 mM (in water) is added at time 0. After 15 min of incubation the reaction is stopped with 250 ml of trichloroacetic acid at 3%, to which is added 250 ml of solution of thiobarbituric acid at 1.5% (in water). The tubes are kept at 100° C. for 10 min then cooled for detection with UV at 532 nm. The linear relation A0/A=1+ks/dkr [(competitor)/(2-deoxyribose)] was used, where A0 and A denote the absorbances in the absence and in the presence of competitor, ks is the rate constant of reaction of the competitor with OH• and kdr=1.9*10^9 M^−1 sec^−1 is the rate constant of reaction of 2-deoxyribose with OH•. Thus ks is equal to the gradient of the straight line A0/A f((competitor)/(2-deoxyribose)) multiplied by kdr.

astrocytes = test: Recapture of glutamate by cultures of astrocytes, radicals generated by xanthine/xanthine oxidase (X/XO); assay type: cell-based, rats
Protocol: B) Procedure with cultures of astrocytes and generation of radicals by the xanthine/xanthine oxidase (X/XO) pair
400 μl of D-lysine at 25 μg/ml (9 ml of D-lysine at 100 μg per ml of borate buffer (0.1M pH 8.4)+27 ml of water) is placed in each well of 24-well culture plates. The wells are left in the stove (5% CO2, 37° C.) over night. Each well is rinsed with 2 times 750 μl of Hanks before receiving the culture medium. 3 lateral demi cortices are taken from rats aged 1 to 2 days. (The hippocampus, the striatum and the meninges are removed). The demi cortices are placed in 2 ml of trypsin-EDTA then put in the stove for 30 min. The action of the trypsin is stopped with 10% of decomplemented foetal calf serum (200 μl). The serum and the trypsin are removed then the cells are dissociated with a pipette in 10 ml of medium (MEM 225 ml+FCS-D 25 ml+glucose 20% 7.5 ml) (MEM=minimum essential medium; FCS-D=decomplemented foetal calf serum). The culture medium is made up to 30 ml, stirred and placed at 400 μl per well. The medium is changed twice weekly for 18 days. The last replacement is effected 4 days prior to the treatment, with a medium without decomplemented foetal calf serum. (MEM 31.5 ml+glucose 20% 1.05 ml).
Treatment takes place on the 18th or 19th day.
Each well is washed with 750 μl of buffer (NaCl 124 mM, KCl 4.6 mM, CaCl2 1.2 mM, MgCl2 1.3 mM, KH2PO4 0.416 mM, NaHCO3 26.75 mM, glucose 10 mM; pH 7.4) for 10 min. The cells are incubated in the presence of xanthine (500 μM) and of the test product (from 0 to 1 mM). After 10 min, xanthine oxidase is added (50 mU/ml) and it is again left to incubate for 10 min. Release of radicals is stopped by washing 3 times with catalase (3000 U/ml). The glutamate is then recaptured in a solution of radioactive glutamate (^3H) at 40 μM (isotopic dilution 1/20000). Recapture is stopped by washing 3 times with the cold buffer. The cells are detached with soda 0.2N and the radioactivity is measured.
Firstly we checked that the inhibition of recapture observed in the presence of X/XO is indeed due to a radical process. For this we replaced the test products with two enzymes: SOD (SuperOxide Dismutase) and catalase (FIG. 1). […] The Fenton reaction converting hydrogen peroxide to OH• is thus short-circuited. […] However, as there seems to be sufficient reducing agent in the medium to promote the formation of H2O2 starting from O2^•^−, it appears likely that a substantial proportion of H2O2 gives OH• (a highly reactive radical).
FIGS. 3 to 8 are the mean of at least 4 independent tests in which the protective power of IC180, IC023, IC241, IC2-16, IC178, IC140, IC209, IC237, IC146, IC193, IC194, IC242, IC207, IC2-19, IC219, IC2-21, and IC249, as a function of the dose, was tested against a fixed concentration of radicals, and therefore of X/XO. In the case of IC180, the increase in recapture appears to be linear (up to 100% is found in some tests). […] Since IC023 alone only becomes “toxic” starting from 1 mM, the variation observed starting from 0.6 mM might reflect the existence of metabolites that are poorly tolerated by the cells. The derivative morpholine IC180 is more interesting.

[2] = product at 100 μM, UV at 290 nm
[3] = product at 500 μM, UV at 290 nm

Sequence of xanthine oxidase (P47989 whole entry, species assumed): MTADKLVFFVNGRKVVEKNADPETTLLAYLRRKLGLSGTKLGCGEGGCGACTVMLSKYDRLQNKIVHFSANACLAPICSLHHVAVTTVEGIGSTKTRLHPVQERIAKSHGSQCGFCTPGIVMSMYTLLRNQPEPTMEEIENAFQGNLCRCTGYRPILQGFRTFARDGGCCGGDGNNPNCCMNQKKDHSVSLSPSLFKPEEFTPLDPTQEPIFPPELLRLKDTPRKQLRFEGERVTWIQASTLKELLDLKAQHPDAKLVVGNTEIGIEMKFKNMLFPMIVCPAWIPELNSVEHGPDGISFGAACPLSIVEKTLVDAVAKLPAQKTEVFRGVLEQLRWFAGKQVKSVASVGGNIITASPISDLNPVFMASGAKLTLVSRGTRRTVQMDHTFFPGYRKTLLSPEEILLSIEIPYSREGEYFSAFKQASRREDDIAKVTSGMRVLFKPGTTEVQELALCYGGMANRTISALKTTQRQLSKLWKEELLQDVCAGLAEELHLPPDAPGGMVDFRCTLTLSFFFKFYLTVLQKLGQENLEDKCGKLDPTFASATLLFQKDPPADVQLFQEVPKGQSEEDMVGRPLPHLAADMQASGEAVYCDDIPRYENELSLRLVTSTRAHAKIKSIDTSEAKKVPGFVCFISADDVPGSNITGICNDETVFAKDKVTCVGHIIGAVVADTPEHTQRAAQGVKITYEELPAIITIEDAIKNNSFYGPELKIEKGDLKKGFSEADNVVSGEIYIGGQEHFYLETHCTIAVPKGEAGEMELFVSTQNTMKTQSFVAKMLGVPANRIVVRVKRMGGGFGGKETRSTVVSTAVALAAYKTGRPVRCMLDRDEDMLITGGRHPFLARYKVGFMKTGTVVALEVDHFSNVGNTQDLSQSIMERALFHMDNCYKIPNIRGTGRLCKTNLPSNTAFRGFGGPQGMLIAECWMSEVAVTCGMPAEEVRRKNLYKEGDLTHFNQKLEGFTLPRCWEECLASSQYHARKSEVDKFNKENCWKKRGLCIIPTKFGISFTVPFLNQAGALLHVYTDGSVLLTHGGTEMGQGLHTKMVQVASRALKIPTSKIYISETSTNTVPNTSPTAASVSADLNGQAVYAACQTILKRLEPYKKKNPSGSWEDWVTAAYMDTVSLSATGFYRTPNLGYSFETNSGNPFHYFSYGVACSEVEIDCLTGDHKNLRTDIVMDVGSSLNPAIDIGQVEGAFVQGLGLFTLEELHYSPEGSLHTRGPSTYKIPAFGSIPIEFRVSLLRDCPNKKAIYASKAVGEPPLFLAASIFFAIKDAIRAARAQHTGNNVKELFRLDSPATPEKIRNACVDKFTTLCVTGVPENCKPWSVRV

Question: With `Oc1ncnc2[nH]ncc12` [Allopurinol, reference compound] as the compound, how does the inhibition at 100 µM (xanthine oxidase) read?
Answer: 92%

Question: What about the inhibition at 500 µM (xanthine oxidase) of the same compound?
Answer: 90%

Question: Which “ks (10^−9M^−1 sec^−1) (±SEM)” value [1] does the source give for `O=C[C@@H](O)[C@@H](O)[C@H](O)[C@H](O)CO` [D-mannose, reference compound] here?
Answer: 0.94±0.06 10^−9M^−1 sec^−1

Question: Which “ks (10^−9M^−1 sec^−1) (±SEM)” value [1] does the source give for `Cl.c1cc2c(s1)C(N1CCOCC1)CCC2` (stereo not drawn) [IC2-16] here?
Answer: 3.33 ± 0.15 10^−9M^−1 sec^−1

Question: With `c1cc2c(s1)CCCC2N1CCCCC1` (stereo not drawn) [IC023, piperidino-4-tetrahydro-4,5,6,7-benzothiophene] as the compound, how does the “ks (10^−9M^−1 sec^−1) (±SEM)” value [1] read?
Answer: 3.61 ± 0.16 10^−9M^−1 sec^−1

Question: What about the “% recapture from which the opposite effect is observed” value (astrocytes; fixed concentration of X/XO) of the same compound?
Answer: ≥ 15%

Question: And the “concentration from which the variation (opposite effect) is observed” value (astrocytes; in presence of X/XO)?
Answer: ≥ 0.6 mM

Question: What about the “concentration from which the product alone becomes "toxic"” value (astrocytes; product alone, astrocytes) of the same compound?
Answer: ≥ 1000 µM

Question: And the inhibition at 100 µM (xanthine oxidase)?
Answer: -6%

Question: What does the source list for `Cl.NC1CCCc2sccc21` (stereo not drawn) [IC088, amino-4-tetrahydro-4,5,6,7-benzothiophene]?
Answer: ks (10^−9M^−1 sec^−1) (±SEM) [1]: 3.37 ± 0.25 10^−9M^−1 sec^−1; inhibition at 100 µM (xanthine oxidase; [2]): -15%

Question: For `Cl.NC1CCCc2ccsc21` (stereo not drawn) [IC178, amino-7-tetrahydro-4,5,6,7-benzothiophene], which “ks (10^−9M^−1 sec^−1) (±SEM)” value [1] is on record?
Answer: 2.76 ± 0.06 10^−9M^−1 sec^−1

Question: What does the source list for `Cl.c1cc2c(s1)CCCC2N1CCSCC1` (stereo not drawn) [IC193, thiomorpholine-4-tetrahydro-4,5,6,7-benzothiophene]?
Answer: ks (10^−9M^−1 sec^−1) (±SEM) [1]: 3.41 ± 0.25 10^−9M^−1 sec^−1; inhibition at 100 µM (xanthine oxidase; [2]): -7%; inhibition at 500 µM (xanthine oxidase; [3]): -2%

Question: Which results are given for `CN1CCN(C2CCCc3sccc32)CC1` (stereo not drawn) [IC194, N-methyl-piperazine-4-tetrahydro-4,5,6,7-benzothiophene]?
Answer: ks (10^−9M^−1 sec^−1) (±SEM) [1]: 3.50 ± 0.23 10^−9M^−1 sec^−1; inhibition at 100 µM (xanthine oxidase; [2]): -15%; inhibition at 500 µM (xanthine oxidase; [3]): 10%

Question: For `Cl.OC1CCN(C2CCCc3sccc32)CC1` (stereo not drawn) [IC209, (4 hydroxy-piperidine)-4-tetrahydro-4,5,6,7-benzothiophene], which “ks (10^−9M^−1 sec^−1) (±SEM)” value [1] is on record?
Answer: 3.27 ± 0.50 10^−9M^−1 sec^−1

Question: Which “ks (10^−9M^−1 sec^−1) (±SEM)” value [1] does the source give for `Cl.c1cc2c(s1)SCCC2N1CCCCC1` (stereo not drawn) [IC237, piperidino-4-tetrahydro-4,5,6,7-thio-7-benzothiophene] here?
Answer: 3.45 ± 0.19 10^−9M^−1 sec^−1

Question: And the inhibition at 100 µM (xanthine oxidase)?
Answer: -9%

Question: What about the inhibition at 500 µM (xanthine oxidase) of the same compound?
Answer: -8%

Question: Which “ks (10^−9M^−1 sec^−1) (±SEM)” value [1] does the source give for `Cl.c1cc2c(s1)SCCC2N1CCOCC1` (stereo not drawn) [IC241, morpholine-4 tetrahydro-4,5,6,7-thio-7-benzothiophene] here?
Answer: 3.01 ± 0.14 10^−9M^−1 sec^−1

Question: And the inhibition at 100 µM (xanthine oxidase; [2])?
Answer: 7%

Question: And the inhibition at 500 µM (xanthine oxidase; [3])?
Answer: -8%

Question: For `CN1CCN(C2CCSc3sccc32)CC1` (stereo not drawn) [IC242, (N-methyl piperazine)-4-tetrahydro-4,5,6,7-thio-7-benzothiophene], which “ks (10^−9M^−1 sec^−1) (±SEM)” value [1] is on record?
Answer: 3.00 ± 0.19 10^−9M^−1 sec^−1

Question: What does the source list for `O=C(O)c1ccccc1O` [ac.salicyl., salicylic acid, reference compound]?
Answer: ks (10^−9M^−1 sec^−1) (±SEM) [1]: 3.02 ± 0.18 10^−9M^−1 sec^−1; ks (10^−9M^−1 sec^−1) (±SEM) ([1]; listed as salicylic acid): 3.02±0.18 10^−9M^−1 sec^−1

Question: For `O=C1O[C@H]([C@@H](O)CO)C(O)=C1O` [vitamin C, reference compound], which “ks (10^−9M^−1 sec^−1) (±SEM)” value [1] is on record?
Answer: 1.87±0.17 10^−9M^−1 sec^−1

Question: Which “recapture of glutamate with enzyme in place of test product (in words)” value (astrocytes; in presence of X/XO, control, FIG. 1) does the source give for catalase here?
Answer: allows a normal degree of recapture to be attained
